As a reminder, the bioavailability is dose-corrected exposure relative to a reference, in per cent. Low readings indicate little systemic uptake, high ones much systemic uptake. Broadly, the IC50 is the concentration that gives 50% inhibition. As a reminder, the GI50 is the concentration that inhibits growth by half.

Data set [1] is described as follows: Oral bioavailability CD-1 mouse at 30 mg/kg. It counts as ADME, organism-based. The note with it: in vivo.
A further data set deals with A549. In words: Antiproliferative activity against human A549 cells assessed as reduction in cell viability incubated for 48 hrs by MTT assay. The class given is functional, cell-based. The note with it: A549, 48 h.
A short description of data set [2]: Inhibition of topoisomerase 2 (unknown origin). Details: species or system Homo sapiens.
Data set [3] addresses T1, DNA topoisomerase 1 (Homo sapiens, UniProt P11387).
T1 sequence (P11387 whole entry): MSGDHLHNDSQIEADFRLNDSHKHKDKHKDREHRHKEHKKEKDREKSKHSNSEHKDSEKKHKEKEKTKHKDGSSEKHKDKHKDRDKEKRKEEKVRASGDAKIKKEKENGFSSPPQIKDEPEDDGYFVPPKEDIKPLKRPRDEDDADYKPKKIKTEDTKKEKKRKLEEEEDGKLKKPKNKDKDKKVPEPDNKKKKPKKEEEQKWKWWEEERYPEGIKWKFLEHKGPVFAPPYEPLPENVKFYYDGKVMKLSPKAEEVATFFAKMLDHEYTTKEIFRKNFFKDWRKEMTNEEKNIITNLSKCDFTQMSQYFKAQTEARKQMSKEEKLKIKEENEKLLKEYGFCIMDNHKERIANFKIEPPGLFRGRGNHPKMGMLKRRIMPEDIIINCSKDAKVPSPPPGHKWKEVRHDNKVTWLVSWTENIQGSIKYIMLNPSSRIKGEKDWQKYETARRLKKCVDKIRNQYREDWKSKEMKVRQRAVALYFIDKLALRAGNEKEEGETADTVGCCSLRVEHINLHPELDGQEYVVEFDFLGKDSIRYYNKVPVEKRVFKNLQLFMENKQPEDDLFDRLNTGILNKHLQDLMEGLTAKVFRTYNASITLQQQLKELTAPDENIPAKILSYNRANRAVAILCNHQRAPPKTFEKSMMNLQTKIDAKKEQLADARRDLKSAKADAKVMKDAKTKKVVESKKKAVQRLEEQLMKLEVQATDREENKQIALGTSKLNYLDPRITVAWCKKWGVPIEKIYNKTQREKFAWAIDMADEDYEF
Description: Inhibition of topoisomerase 1 (unknown origin).

The subject of data set [4] is HeLa. In words: Antiproliferative activity against human HeLa cells assessed as reduction in cell viability incubated for 48 hrs by MTT assay. It counts as functional, cell-based. For orientation: Formazan colour is commonly taken as a measure of viable cells.
Another data set has as its system MDA-MB-231. Description: Cytotoxicity against human MDA-MB-231 cells at 1 uM by MTT assay. The class given is functional.
For another data set, the system named is U2OS. In words: Antiproliferative activity against human U2OS cells. The class given is functional, cell-based.
The subject of data set [5] is HeLa. In words: Antiproliferative activity against human HeLa cells. It counts as functional, cell-based.
Data set [6] deals with HT-1080. In words: Antiproliferative activity against human HT-1080 cells. It counts as functional, cell-based.
The test system of another data set is WI-38. In words: Antiproliferative activity against human WI-38 cells. The class given is functional, cell-based.
In the next data set the test system is MIA PaCa-2. Description: Antiproliferative activity against human MIA PaCa-2 cells. The class given is functional, cell-based.
The next data set concerns the target Histone deacetylase. Description: Inhibition of HDAC (unknown origin). It counts as protein assay, Homo sapiens.
The test system of another data set is U-251. Description: Antiproliferative activity against human U-251 cells. The class given is functional, cell-based.
For data set [7], the system named is HCT-116. In words: Antiproliferative activity against human HCT-116 cells. It counts as functional, cell-based.
Data set [8] has as its system NCI-H460. In words: Antiproliferative activity against human NCI-H460 cells. It counts as functional, cell-based.
Another data set relates to HepG2. Description: Cytotoxicity against human HepG2 cells. The class given is functional, cell-based.
The test system of data set [9] is NCI-H460. Description: Cytotoxicity against human NCI-H460 cells. The class given is functional, cell-based.
The test system of a further data set is MGC-803. Description: Cytotoxicity against human MGC-803 cells. It counts as functional, cell-based.
The next data set concerns T-24. Description: Cytotoxicity against human T24 cells. The class given is functional, cell-based.
Data set [10] concerns HL-60. In words: Cytotoxicity against human HL-60 cells incubated for 24 hrs by MTT assay. It counts as functional.
The next data set deals with SR. Description: Cytotoxicity against human SR cells incubated for 24 hrs by MTT assay. The class given is functional.
Data set [11] has as its target T1, DNA topoisomerase 1. In words: Inhibition of human topoisomerase 1 incubated for 2 hrs by ELISA analysis. In general terms: In an ELISA, binding on a coated surface is turned into a signal by an enzyme label.
For a further data set, the system named is MDA-MB-435. Description: Cytotoxicity against human MDA-MB-435 cells incubated for 24 hrs by MTT assay. The class given is functional.
Data set [12] has as its system MCF7. Description: Antiproliferative activity against human MCF7 cells assessed as inhibition of cell growth incubated for 72 hrs by MTT assay. The class given is functional, cell-based. The note with it: MCF7, 72 h.
Another data set deals with CAKI-1. In words: Antiproliferative activity against human CAKI-1 cells assessed as inhibition of cell growth incubated for 72 hrs by MTT assay. The class given is functional, cell-based. The note with it: CAKI-1, 72 h.
Data set [13] is described as follows: Antiproliferative activity against human A375P cells. The class given is functional, cell-based.
The test system of a further data set is SK-MEL-28. In words: Antiproliferative activity against human SK-MEL-28 cells. The class given is functional, cell-based.
A further data set has as its system SK-MEL-5. In words: Antiproliferative activity against human SK-MEL-5 cells. It counts as functional, cell-based.
Data set [14] concerns HT-1080. Description: Antiproliferative activity against human HT-1080 cells assessed as reduction cell viability incubated for 48 hrs by MTT assay. The class given is functional, cell-based. The note with it: HT-1080, 48 h.
Data set [15] concerns HL-60. In words: Antiproliferative activity against human HL-60 cells assessed as reduction cell viability incubated for 48 hrs by MTT assay. The class given is functional, cell-based. The note with it: HL-60, 48 h.
Data set [16] deals with MCF7. In words: Antiproliferative activity against human MCF7 cells assessed as reduction cell viability incubated for 48 hrs by MTT assay. It counts as functional, cell-based. The note with it: MCF7, 48 h.
For data set [17], the system named is HeLa. Description: Antiproliferative activity against human HeLa cells assessed as reduction cell viability incubated for 48 hrs by MTT assay. The class given is functional, cell-based.
The test system of the next data set is M14. Description: Antiproliferative activity against human M14 cells assessed as reduction cell viability incubated for 48 hrs by MTT assay. It counts as functional, cell-based. The note with it: M14, 48 h.
For another data set, the system named is U-937. Description: Antiproliferative activity against human U-937 cells assessed as reduction cell viability incubated for 48 hrs by MTT assay. The class given is functional, cell-based. The note with it: U-937, 48 h.
For data set [18], the system named is HCT-116. In words: Antiproliferative activity against human HCT-116 cells assessed as reduction cell viability incubated for 48 hrs by MTT assay. The class given is functional, cell-based. The note with it: HCT-116, 48 h.
The next data set has as its system NCI-H1299. In words: Antiproliferative activity against human NCI-H1299 cells assessed as reduction cell viability incubated for 48 hrs by MTT assay. The class given is functional, cell-based. The note with it: NCI-H1299, 48 h.
Data set [19] has as its target DNA (cytosine-5)-methyltransferase 1 (Homo sapiens, UniProt P26358). In words: Inhibition of his-tagged human DNMT1 by scintillation counter analysis.
Data set [20] concerns the target DNA (cytosine-5)-methyltransferase 3A (Homo sapiens, UniProt Q9Y6K1). In words: Inhibition of C-terminal biotin-labelled human DNMT3A by multilabel plate reader analysis.

Chain of DNA (cytosine-5)-methyltransferase 1 (P26358 whole entry): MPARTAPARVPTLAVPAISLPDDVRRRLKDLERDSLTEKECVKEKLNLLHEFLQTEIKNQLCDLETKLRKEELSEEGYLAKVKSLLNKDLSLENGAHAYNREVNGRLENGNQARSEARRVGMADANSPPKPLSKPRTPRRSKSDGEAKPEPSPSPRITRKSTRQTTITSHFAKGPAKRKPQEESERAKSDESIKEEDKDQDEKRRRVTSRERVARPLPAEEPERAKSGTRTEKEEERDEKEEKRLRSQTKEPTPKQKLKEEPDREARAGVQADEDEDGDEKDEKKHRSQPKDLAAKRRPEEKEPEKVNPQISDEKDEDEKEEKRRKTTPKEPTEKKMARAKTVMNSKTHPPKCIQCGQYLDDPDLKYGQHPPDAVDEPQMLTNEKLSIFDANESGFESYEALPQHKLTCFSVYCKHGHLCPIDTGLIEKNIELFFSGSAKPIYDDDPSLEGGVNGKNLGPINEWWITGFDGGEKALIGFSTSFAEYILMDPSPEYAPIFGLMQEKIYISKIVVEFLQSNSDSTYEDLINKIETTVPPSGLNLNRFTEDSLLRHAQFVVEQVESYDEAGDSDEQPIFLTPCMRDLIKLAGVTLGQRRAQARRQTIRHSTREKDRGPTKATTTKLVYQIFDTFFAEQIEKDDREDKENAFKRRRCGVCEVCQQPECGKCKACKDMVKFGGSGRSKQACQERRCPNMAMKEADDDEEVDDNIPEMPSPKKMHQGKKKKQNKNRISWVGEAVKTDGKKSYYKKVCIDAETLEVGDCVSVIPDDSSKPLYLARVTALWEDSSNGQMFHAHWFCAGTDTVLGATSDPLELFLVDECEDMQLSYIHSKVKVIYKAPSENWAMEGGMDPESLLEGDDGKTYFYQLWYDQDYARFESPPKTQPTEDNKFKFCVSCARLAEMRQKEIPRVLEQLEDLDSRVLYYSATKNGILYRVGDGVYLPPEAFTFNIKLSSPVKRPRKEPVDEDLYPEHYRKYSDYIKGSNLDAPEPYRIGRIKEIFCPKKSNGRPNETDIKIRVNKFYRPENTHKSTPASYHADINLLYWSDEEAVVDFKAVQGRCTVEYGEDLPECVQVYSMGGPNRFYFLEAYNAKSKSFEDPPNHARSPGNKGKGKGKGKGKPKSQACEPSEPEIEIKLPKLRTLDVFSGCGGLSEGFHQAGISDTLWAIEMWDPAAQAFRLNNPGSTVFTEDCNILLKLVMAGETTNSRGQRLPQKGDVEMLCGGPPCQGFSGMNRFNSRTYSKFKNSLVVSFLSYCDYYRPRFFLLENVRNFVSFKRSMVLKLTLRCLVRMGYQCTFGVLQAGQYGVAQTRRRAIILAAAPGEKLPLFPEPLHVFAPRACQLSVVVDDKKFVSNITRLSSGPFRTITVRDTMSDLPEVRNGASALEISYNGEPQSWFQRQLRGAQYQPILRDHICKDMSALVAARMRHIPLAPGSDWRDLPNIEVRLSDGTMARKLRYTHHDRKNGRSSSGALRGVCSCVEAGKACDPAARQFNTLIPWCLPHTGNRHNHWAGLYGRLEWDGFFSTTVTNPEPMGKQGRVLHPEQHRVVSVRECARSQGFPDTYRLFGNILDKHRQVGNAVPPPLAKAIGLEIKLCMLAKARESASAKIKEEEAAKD
Chain of DNA (cytosine-5)-methyltransferase 3A (Q9Y6K1 whole entry, looked up): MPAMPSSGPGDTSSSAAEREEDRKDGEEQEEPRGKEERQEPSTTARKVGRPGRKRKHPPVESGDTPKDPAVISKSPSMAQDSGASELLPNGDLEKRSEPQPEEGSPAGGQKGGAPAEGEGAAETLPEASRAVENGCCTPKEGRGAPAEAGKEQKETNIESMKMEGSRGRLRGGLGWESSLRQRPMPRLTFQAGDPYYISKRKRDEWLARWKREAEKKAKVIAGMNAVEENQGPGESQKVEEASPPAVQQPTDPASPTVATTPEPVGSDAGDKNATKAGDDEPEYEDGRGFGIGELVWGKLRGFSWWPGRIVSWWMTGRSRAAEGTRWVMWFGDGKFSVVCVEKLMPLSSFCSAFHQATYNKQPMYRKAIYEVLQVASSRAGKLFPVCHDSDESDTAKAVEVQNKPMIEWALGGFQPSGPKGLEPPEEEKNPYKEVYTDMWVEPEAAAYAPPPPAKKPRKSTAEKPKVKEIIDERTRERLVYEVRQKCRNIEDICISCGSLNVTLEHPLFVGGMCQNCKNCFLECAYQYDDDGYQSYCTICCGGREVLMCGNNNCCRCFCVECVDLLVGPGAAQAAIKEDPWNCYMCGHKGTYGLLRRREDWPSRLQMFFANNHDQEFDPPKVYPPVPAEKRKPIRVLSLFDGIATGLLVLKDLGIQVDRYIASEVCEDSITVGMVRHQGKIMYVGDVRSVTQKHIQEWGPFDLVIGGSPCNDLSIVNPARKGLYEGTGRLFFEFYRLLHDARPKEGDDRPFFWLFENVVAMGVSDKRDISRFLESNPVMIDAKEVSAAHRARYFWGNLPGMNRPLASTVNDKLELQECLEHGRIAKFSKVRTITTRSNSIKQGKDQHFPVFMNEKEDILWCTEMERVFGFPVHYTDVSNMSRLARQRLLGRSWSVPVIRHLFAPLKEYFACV

The molecule `CN(C)CCCO/N=C1\c2cc(OCCCN(C)C)ccc2-c2cnc3ccccc3c21` displayed a bioavailability in data set [1] of 39.8%. The IC50 in the data set on A549 stood at 1110 nM; in data set [2] it was 4950 nM; on DNA topoisomerase 1 [3] it was 2630 nM; with HeLa [4], 390 nM.
The molecule `O[C@@H]1[C@@H](O)[C@H](Oc2ccc(O[C@@H]3O[C@H](COc4cccc5cccnc45)[C@@H](O)[C@H](O)[C@H]3O)cc2)O[C@H](COc2cccc3cccnc23)[C@H]1O` gave an Activity with MDA-MB-231 of 34.9%.
For `NCCCOc1cc(NC(=O)c2cc(Cl)cc(C(=O)Nc3cc(OCCCN)c4ccccc4n3)n2)nc2ccccc12`, the IC50 with U2OS, with HeLa [5], in the data set on HT-1080 [6] and with WI-38 was 300 nM each time.
Molecule `CCN(CC)CCCNc1ccc2c(c1)[nH]c1c2c[n+](C)c2ccc(NCCCN(CC)CC)cc12` yielded a 50% inhibitory concentration (IC50) with MIA PaCa-2 of 220 nM.
On to `CC1(C)CC(=O)Nc2ccc(C(=O)NCC3CCC(/C=C/C(=O)NO)CC3)cc21` (stereo not given), for which the IC50 at Histone deacetylase is 1.5 nM; in the data set on U-251 it was 0.6 nM; with HCT-116 [7] it was 600 nM; with NCI-H460 [8] it was 1 nM.
For `CCCCCCOc1ccc(/C=N/Nc2cc(C)nc3ccc(Cl)cc23)cc1`, the IC50 in the data set on HepG2 was 4880 nM; with NCI-H460 [9] it was 3220 nM; in the data set with MGC-803, 2200 nM; with T-24, 3170 nM.
Take `N#CC1=C(N)Oc2c(ccc3ccccc23)C1c1cc2ccccc2n2nnnc12` (stereo not given): the GI50 was 260 nM in the data set with HL-60 [10], 232 nM in the data set on SR and 300 nM with MDA-MB-435. The molecule further came in with a 50% inhibitory concentration (IC50) against DNA topoisomerase 1 [11] of 278 nM.
`CC1CN(c2nc3ccccc3c3c2-c2ccc(Cl)cc2C3=O)CCN1` (stereo not given): the IC50 in the data set with MCF7 [12] came to 2400 nM; in the data set with CAKI-1, 1660 nM.
The molecule `CCN(CC)CCOC(=O)c1ccc2c(c1)C1C(C(=O)c3ccccc3N1CCN(CC)CC)N2CCN(CC)CC` (stereo not given) yielded a half-inhibitory concentration (IC50) in the data set with HCT-116 [7] of less than 10000 nM.
On to `CC[C@@]1(O)C(=O)OCc2c1cc1n(c2=O)Cc2c-1nc1cc(F)c(OC)cc1c2C`, for which the IC50 in [13] worked out at 1.9 nM; in the data set on SK-MEL-28 it was 1.4 nM; in the data set with SK-MEL-5, 2.6 nM.
As for `O=C(Nc1ccc(Nc2ccnc3ccccc23)cc1)c1cccc(Nc2ccnc3ccccc23)c1`, the half-inhibitory concentration (IC50) with HT-1080 [14] worked out at 2700 nM; in the data set with HL-60 [15] it was 1600 nM; in the data set with MCF7 [16], 300 nM; in the data set on HeLa [17], 2000 nM; in the data set on M14, 4700 nM; in the data set with U-937 it was 700 nM. For the same molecule, the 50% inhibitory concentration (IC50) was found to be 1500 nM in the data set with HCT-116 [18], 5300 nM with NCI-H1299, 27000 nM in [19] and 800 nM in data set [20].
As to `O=C(Nc1cccc(Nc2ccnc3ccccc23)c1)c1cccc(Nc2ccnc3ccccc23)c1`, the IC50 in the data set on U-937 was found to be 1500 nM.

For the origin of these results see ChEMBL document CHEMBL5241080, “Quinoline anticancer agents active on DNA and DNA-interacting proteins: From classical to emerging therapeutic targets” (Eur J Med Chem, 2021).
